Source: article PMC3456874, “Fragment Screening at Adenosine-A3 Receptors in Living Cells Using a Fluorescence-Based Binding Assay” (Chemistry & Biology, 2012)
Values joined by “and” are separate entries in the source; they are usually repeats but may differ in a detail not shown here. Equal entries are not always repeated. Where two headings read alike, the source gives them in different places.

Legend:
[1] = tested on: A3-YFP; test: A3-YFP receptor internalization (granularity analysis) in CHO A3-YFP cells
[2] = molecular target: T1, human A3AR (Homo sapiens, UniProt P0DMS8); test: High-content fluorescent ligand (CA200645) competition binding assay in live CHO CRE-SPAP cells expressing the A3AR; details: for remaining binding at 1000 µM: read-out: % of CA200645 binding (% DMSO control)
T1 sequence (P0DMS8 1-318): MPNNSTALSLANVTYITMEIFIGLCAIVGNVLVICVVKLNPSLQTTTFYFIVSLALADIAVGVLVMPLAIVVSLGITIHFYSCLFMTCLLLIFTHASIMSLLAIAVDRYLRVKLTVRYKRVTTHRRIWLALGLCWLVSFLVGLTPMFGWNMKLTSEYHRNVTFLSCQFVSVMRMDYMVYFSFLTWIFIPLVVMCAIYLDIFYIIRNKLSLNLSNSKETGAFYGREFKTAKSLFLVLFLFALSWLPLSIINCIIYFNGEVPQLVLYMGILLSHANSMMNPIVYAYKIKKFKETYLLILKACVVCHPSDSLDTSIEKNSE

[3] = molecular target: T1, human A3AR; test: cell-based
[4] = molecular target: T1, human A3AR; test: CRE-SPAP gene transcription assay (shift of NECA-mediated inhibition of forskolin-stimulated SPAP response)
[5] = molecular target: T2, human A1AR (Homo sapiens, UniProt P30542); test: cell-based
T2 sequence (P30542 1-326): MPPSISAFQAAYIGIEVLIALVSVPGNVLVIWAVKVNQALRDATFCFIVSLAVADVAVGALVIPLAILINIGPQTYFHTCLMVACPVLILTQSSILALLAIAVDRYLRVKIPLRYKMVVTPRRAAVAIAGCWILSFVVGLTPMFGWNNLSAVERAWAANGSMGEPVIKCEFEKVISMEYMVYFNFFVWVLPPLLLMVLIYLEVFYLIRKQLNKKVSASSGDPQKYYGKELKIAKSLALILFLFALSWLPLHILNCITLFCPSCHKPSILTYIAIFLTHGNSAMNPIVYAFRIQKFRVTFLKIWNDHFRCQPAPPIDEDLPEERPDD

[6] = molecular target: T2, human A1AR; test: High-content fluorescent ligand (CA200645) competition binding assay in live CHO-A1 cells; details: for inhibition at 10 µM: read-out: inhibition of CA200645 binding at the A1AR; for A1 % inhibition (Table S3): top concentration of compound tested, quoted where less than 50% inhibition of total binding
[7] = molecular target: T1, human A3AR
[8] = molecular target: T2, human A1AR
[9] = pKi at the adenosine A3 receptor (Table S2), mean ± s.e.m from 3 separate experiments
[10] = A3 pKi (Table S3), mean ± s.e.m

Which “A3-YFP internalization / agonist action” value [1] does the source give for `CNC(=O)[C@H]1O[C@@H](n2cnc3c(NCc4cccc(I)c4)nc(Cl)nc32)[C@H](O)[C@@H]1O` [2-Cl IB-MECA] here?
The value was “stimulated A3-YFP internalization”.

Which Ki [2, 9] does the source give for `Nc1ccc2[nH]ncc2c1` [AC 30454] here?
The Ki was 3.16 µM.

What about the remaining binding at 1000 µM [2] of the same compound?
The remaining binding at 1000 µM was 13%.

Which results are given for `Cc1cc2cc(N)ccc2[nH]1` [AC 34875]?
Ki [2, 9]: 1.2 µM; remaining binding at 1000 µM [2]: 10.4%

For `Nc1ccc(C(F)(F)F)cc1N` [BTB 07340], which Ki [2, 9] is on record?
Its Ki is 2.95 µM.

And the remaining binding at 1000 µM [2]?
The remaining binding at 1000 µM was 10.3%.

`Nc1nc2ccc(Cl)cc2c2nc(-c3ccco3)nn12` [CGS 15943, reference compound] was tested. Which Ki [3] did it give?
Its Ki is 0.00661 µM.

With `CCNC(=O)[C@H]1O[C@@H](n2cnc3c(N)nc(NCCc4ccc(CCC(=O)O)cc4)nc32)[C@H](O)[C@@H]1O` [CGS 21680, reference compound] as the compound, how does the “displacement of CA200645 binding” value ([2]; A3AR, agonist competition curves) read?
Its value is “only partial displacement”.

Which Kb [4] does the source give for `COc1ccc(-n2nc3c(NC(=O)c4ccccc4)nc4ccccc4n3c2=O)cc1` [Compound 1] here?
Its Kb is 0.00166 µM.

What about the Ki [5] of the same compound?
Its Ki is 1.17 µM.

What about the Ki [3] of the same compound?
The Ki was 0.00309 µM.

Which Ki [3] does the source give for `COc1ccc(-n2nc3c(=O)[nH]c4ccccc4n3c2=O)cc1` [Compound 2] here?
The Ki was 0.0776 µM.

How did the Ki [3] turn out when `COc1ccc(NN=c2[nH]c3ccccc3[nH]c2=O)cc1` [Compound 3] was run?
Its Ki is 2.63 µM.

For `O=C(Nc1cnc2ccccc2c1)c1ccccc1` [Compound 4], which Ki [3] is on record?
The Ki was > 100 µM.

With `Nc1cnc2ccccc2c1` [Compound 5] as the compound, how does the Ki [3] read?
The Ki was > 10000 µM.

For `COc1ccc(-n2ccnc2)cc1` [Compound 6], which Ki [3] is on record?
The Ki was 525 µM.

How did the Ki [3] turn out when `COc1ccc(NC(C)=O)cc1` [Compound 7] was run?
The Ki was 20.4 µM.

How did the Ki [3] turn out when `Nc1cccc(-c2nc3ccccc3[nH]2)c1` [Compound 8] was run?
Its Ki is 3.24 µM.

`Nc1ccc(-c2nc3ccccc3[nH]2)cc1` [Compound 9] was tested. Which inhibition at 100 µM ([2]; read-out: % inhibition of CA200645 binding at A3AR) did it give?
Its inhibition at 100 µM is 41.2 ± 7.3%.

How did the “fold increase in A3AR affinity compared to DP01095” value [2] turn out when `O=C(Nc1ccccc1-c1nc2ccccc2[nH]1)c1cccnc1` [Compound 10] was run?
The value was 3 fold.

What about the Ki [2, 10] of the same compound?
Its Ki is 0.0977 µM.

And the inhibition at 10 µM [6]?
Its inhibition at 10 µM is < 50%.

And the “A1 % inhibition (Table S3)” value [6]?
Its value is 38.9 ± 8.3%.

Which Ki [2, 10] does the source give for `O=C(Nc1ccccc1-c1nc2ccccc2[nH]1)c1ccco1` [Compound 11] here?
The Ki was 0.166 µM.

What about the inhibition at 10 µM [6] of the same compound?
The inhibition at 10 µM was < 50%.

What about the “A1 % inhibition (Table S3)” value [6] of the same compound?
Its value is 40.6 ± 7.3%.

Which results are given for `O=C(Nc1ccccc1-c1nc2ccccc2[nH]1)c1cccs1` [Compound 12]?
Ki [2, 10]: 0.257 µM; inhibition at 10 µM [6]: < 50%; A1 % inhibition (Table S3) [6]: 47.9 ± 9.7%

For `Nc1ccccc1-c1nc2ccccc2[nH]1` [DP 01095], which remaining binding at 1000 µM [2] is on record?
Its remaining binding at 1000 µM is 36.3%.

What about the Ki [3] of the same compound?
The Ki was 0.363 µM and 0.331 µM.

Which results are given for `CCCCC#Cc1nc(NC)c2ncn([C@@H]3O[C@H](CO)[C@@H](O)[C@H]3O)c2n1` [HEMADO, reference compound]?
pIC50 for inhibition of CA200645 binding (agonists) ([2]; A3AR, n = 4): 7.23 ± 0.23; A3-YFP internalization / agonist action [1]: stimulated A3-YFP internalization

How did the “A3-YFP internalization / agonist action” value [1] turn out when `CNC(=O)[C@H]1O[C@@H](n2cnc3c(NCc4cccc(I)c4)ncnc32)[C@H](O)[C@@H]1O` [IB-MECA] was run?
The value was “caused A3-YFP internalisztion”.

`COC(=O)C1Cc2ccccc2N1` (centres unmarked) [MO 00997] was tested. Which Ki [2, 9] did it give?
The Ki was 0.794 µM.

What about the remaining binding at 1000 µM [2] of the same compound?
The remaining binding at 1000 µM was 31.1%.

With `CCCn1c(=O)[nH]c2nc(-c3ccc(S(=O)(=O)N4CCN(c5ccc(Cl)cc5)CC4)cc3)[nH]c2c1=O` [PSB 603] as the compound, how does the Ki [7] read?
Its Ki is 0.0562 µM.

What about the Ki [8] of the same compound?
The Ki was 0.0417 µM.

How did the Ki [3] turn out when `Nc1nc2c(cnn2CCc2ccccc2)c2nc(-c3ccco3)nn12` [SCH 58261, reference compound] was run?
Its Ki is 0.186 µM.

With `Cc1cc(N)c(N)cc1Cl` [TL 00770] as the compound, how does the Ki [2, 9] read?
Its Ki is 1 µM.

And the remaining binding at 1000 µM [2]?
The remaining binding at 1000 µM was 23.5%.

For `Nc1nc(NCCc2ccc(O)cc2)nc2nc(-c3ccco3)nn12` [ZM 241385, reference compound], which Kb [4] is on record?
The Kb was 0.407 µM.

What about the Ki [3] of the same compound?
Its Ki is 0.182 µM.
